Data set [1] concerns pentagastrin-stimulated acid secretion of perfused rat stomachs. Briefly: Antisecretory action in perfused rat stomachs (pentagastrin-stimulated acid secretion in vivo). Particulars: anesthetized CD rat, female, dose 3 μmol/kg i.v., perfused stomach. The text has this: Testing of the Antisecretory Action in Perfused Rat Stomachs
The influence of the compounds according to the invention after intravenous administration on the pentagastrin-stimulated acid secretion of perfused rat stomachs in vivo is shown in Table A which follows.
The abdomen of anesthetized rates (CD rat, female, 200-250 g; 1.5 g/kg i.m. urethane) was opened after tracheotomy by means of a median upper abdominal incision and a PVC catheter was fixed transorally in the esophagus and another via the pylorus such that the ends of the tubes just projected into the gastric lumen. The catheter leading from the pylorus led outwards into the right abdominal wall through a side opening.
After thorough rinsing (about 50-100 ml), warm physiological NcCl solution (37° C.) was continuously passed through the stomach (0.5 ml/min, pH 6.8-6.9, Braun-Unita I). The pH (pH meter 632, glass electrode EA 147; φ=5 mm, Metrohm) and, by titration with a freshly prepared 0.01 N NaOH solution to pH 7 (dosimat 665 Metrohm), the secreted HCl were determined in the effluent, in each case collected at an interval of 15 minutes.
The gastric secretion was stimulated by continuous infusion of […] (=1.65 ml/h) of i.v. pentagastrin (left femoral vein) about 30 min after the end of the operation (i.e. after determination of 2 preliminary fractions). […]

From patent publication US6503923B1, “Haloalkoxy imidazonaphthyridines” (ALTANA Pharma AG, priority 1999, dated 2003) come the findings set out here.

For `Cc1nc2c3c(ccn2c1C)[C@@H](OCC(F)(F)F)[C@H](O)[C@@H](c1ccccc1)N3` [Example 1, (7R, 8R, 9R)-2,3-Dimethyl-8-hydroxy-7-(2,2,2-trifluoroethoxy)-9-phenyl-7,8,9,10-tetra-hydroimidazo[1,2-h][1,7]naphthyridine], the melting point (commonly the temperature of the solid-liquid transition) lay in the range of 178 to 180 °C. Further, the “Inhibition of acid secretion” value in data set [1] is listed as 100%.
